Species: Rattus norvegicus
Assay: Open TG-GATES - Regimen: Daily Repeat
Assay type: toxicity, organism-based, Sprague-Dawley
Set-up: regimen Daily Repeat, gender Male, age 6 weeks
Conditions: in vivo, po, route gavage; for Eos / Fbg / Hb / Ht / Lym / MCH / MCV / Mono / Neu / PT / Plat / RBC / Ret / WBC / APTT / Bas: tissue Blood; for KIDNEY_L / KIDNEY_R / KIDNEY_TOTAL: tissue Kidney; for LIVER: tissue Liver; for ALP / ALT / AST / BUN / CRE / Ca / Cl / DBIL / GLC / IP / K / LDH / Na / PL / RALB / TBIL / TC / TP / gamma-GTP: tissue Plasma
[1] = 100 mg/kg, 72 h, dose level Middle, time 3 day
[2] = 100 mg/kg, […], dose level Middle, time 7 day
[3] = 100 mg/kg, […], dose level Middle, time 14 day
[4] = 100 mg/kg, […], dose level Middle, time 28 day
[5] = 300 mg/kg, 72 h, dose level High, time 3 day

`NC(=O)N1c2ccccc2C=Cc2ccccc21` [CARBAMAZEPINE] gave an Eos [1] of 1.2%, a Fbg [1] of 224.6 mg/dL and a Hb [1] of 13.6 g/dL. The Ht [1] was 39.9%, the Lym [1] was 79% and the MCH [1] was 21.3 pg. It also gave an MCV [1] of 62.4 fL, a Mono [1] of 2.4% and a Neu [1] of 16.4%. It also gave a PT [1] of 11.9 s, a Plat [1] of 125.3 x10_4/uL and an RBC [1] of 638.8 x10_4/ul. It also gave a Ret [1] of 4.9%, a WBC [1] of 79.2 x10_2/uL and a KIDNEY_L [1] of 1 g. It also gave a KIDNEY_R [1] of 1 g, a KIDNEY_TOTAL [1] of 2.1 g and an LIVER [1] of 12.1 g. For the same molecule, the ALP [1] was 795 IU/L, the ALT [1] was 39.6 IU/L and the AST [1] was 67.2 IU/L. The BUN [1] was 15.8 mg/dL, the CRE [1] was 0.4 mg/dL and the Ca [1] was 11.1 mg/dL. For the same molecule, the Cl [1] was 103.4 meq/L, the DBIL [1] was 0.084 mg/dL and the GLC [1] was 217.2 mg/dL. For the same molecule, the IP [1] was 7.9 mg/dL, the K [1] was 3.5 meq/L and the LDH [1] was 212.4 IU/L. It also gave a Na [1] of 141.4 meq/L, a PL [1] of 154.4 mg/dL and an RALB [1] of 3.4 g/dL. The TBIL [1] was 0.1 mg/dL, the TC [1] was 80.6 mg/dL and the TP [1] was 5.8 g/dL. The gamma-GTP [1] was 0.8 IU/L, the TERMINAL_BW [2] was 271.4 g and the TERMINAL_BW [3] was 314.7 g. The TERMINAL_BW [4] was 397.6 g, the APTT [2] was 20.2 s and the Bas [2] was 0%. The Eos [2] was 1%, the Fbg [2] was 229.8 mg/dL and the Hb [2] was 13.3 g/dL. The Ht [2] was 39.4%, the Lym [2] was 85% and the MCH [2] was 21.1 pg. For the same molecule, the MCV [2] was 62.5 fL, the Mono [2] was 2.6% and the Neu [2] was 10.8%. The PT [2] was 11.6 s, the Plat [2] was 134.8 x10_4/uL and the RBC [2] was 630.8 x10_4/ul. The Ret [2] was 5.1%, the WBC [2] was 131.2 x10_2/uL and the APTT [3] was 21.8 s. The Bas [3] was 0%, the Eos [3] was 0.6% and the Fbg [3] was 213.4 mg/dL. The Hb [3] was 14.4 g/dL, the Ht [3] was 41.3% and the Lym [3] was 80%. For the same molecule, the MCH [3] was 20.6 pg, the MCV [3] was 59.1 fL and the Mono [3] was 2%. For the same molecule, the Neu [3] was 16%, the PT [3] was 12.4 s and the Plat [3] was 122.9 x10_4/uL. For the same molecule, the RBC [3] was 698.6 x10_4/ul, the Ret [3] was 3.8% and the WBC [3] was 129.1 x10_2/uL. For the same molecule, the APTT [4] was 21.1 s, the Bas [4] was 0% and the Eos [4] was 1.2%. For the same molecule, the Fbg [4] was 222 mg/dL, the Hb [4] was 15.7 g/dL and the Ht [4] was 44.3%. It also gave a Lym [4] of 80%, an MCH [4] of 19.5 pg and an MCV [4] of 55.1 fL. It also gave a Mono [4] of 2.4%, a Neu [4] of 15.4% and a PT [4] of 12.8 s. For the same molecule, the Plat [4] was 105.9 x10_4/uL, the RBC [4] was 804 x10_4/ul and the Ret [4] was 2%. The WBC [4] was 98.2 x10_2/uL, the KIDNEY_L [2] was 1.2 g and the KIDNEY_R [2] was 1.1 g. It also gave a KIDNEY_TOTAL [2] of 2.3 g, a KIDNEY_L [3] of 1.3 g and a KIDNEY_R [3] of 1.3 g. The KIDNEY_TOTAL [3] was 2.6 g, the KIDNEY_L [4] was 1.6 g and the KIDNEY_R [4] was 1.5 g. It also gave a KIDNEY_TOTAL [4] of 3.1 g, an LIVER [2] of 14.5 g and an LIVER [3] of 14.8 g. The LIVER [4] was 16.8 g, the ALP [2] was 857.6 IU/L and the ALT [2] was 34 IU/L. The AST [2] was 63 IU/L, the BUN [2] was 17 mg/dL and the CRE [2] was 0.5 mg/dL. It also gave a Ca [2] of 10.7 mg/dL, a Cl [2] of 102.2 meq/L and a DBIL [2] of 0.1 mg/dL. The GLC [2] was 207.6 mg/dL, the IP [2] was 7.3 mg/dL and the K [2] was 3.6 meq/L. The LDH [2] was 233.2 IU/L, the Na [2] was 141.2 meq/L and the PL [2] was 175 mg/dL. The RALB [2] was 3.5 g/dL, the TBIL [2] was 0.1 mg/dL and the TC [2] was 93.4 mg/dL. The TP [2] was 5.9 g/dL, the gamma-GTP [2] was 1 IU/L and the ALP [3] was 733.4 IU/L. For the same molecule, the ALT [3] was 37.6 IU/L, the AST [3] was 64.6 IU/L and the BUN [3] was 16.5 mg/dL. For the same molecule, the CRE [3] was 0.5 mg/dL, the Ca [3] was 10.6 mg/dL and the Cl [3] was 101.6 meq/L. The DBIL [3] was 0.1 mg/dL, the GLC [3] was 205.4 mg/dL and the IP [3] was 7.5 mg/dL. The K [3] was 3.7 meq/L, the LDH [3] was 203.2 IU/L and the Na [3] was 141.4 meq/L. The PL [3] was 161.2 mg/dL, the RALB [3] was 3.4 g/dL and the TBIL [3] was 0.2 mg/dL. The TC [3] was 84.4 mg/dL, the TP [3] was 5.9 g/dL and the gamma-GTP [3] was 1.2 IU/L. The ALP [4] was 641.4 IU/L, the ALT [4] was 41.2 IU/L and the AST [4] was 62.2 IU/L. It also gave a BUN [4] of 17.4 mg/dL, a CRE [4] of 0.4 mg/dL and a Ca [4] of 10.2 mg/dL. The Cl [4] was 101.8 meq/L, the DBIL [4] was 0.092 mg/dL and the GLC [4] was 213.8 mg/dL. It also gave an IP [4] of 7 mg/dL, a K [4] of 3.6 meq/L and an LDH [4] of 138.6 IU/L. The Na [4] was 141.4 meq/L, the PL [4] was 158.2 mg/dL and the RALB [4] was 3.5 g/dL. It also gave a TBIL [4] of 0.1 mg/dL, a TP [4] of 6.2 g/dL and a gamma-GTP [4] of 0.6 IU/L. For the same molecule, the TERMINAL_BW [5] was 224.7 g and the APTT [5] was 20.4 s.

Reference: ChEMBL document CHEMBL3885861, “Open TG-GATES”
